Article PMC3847131, “Functional characterization of a serine-threonine protein kinase from Bambusa balcooa that implicates in cellulose overproduction and superior quality fiber formation” (BMC Plant Biology, 2013)

Biological target: T1, BbKst-kinase (serine/threonine protein kinase BbKst)
T1 construct: kinase domain (from 2233 to 3342 bp of cDNA), His-fused, expressed in E. coli BL21
Experiment: in vitro […] kinase assay with purified kinase domain
Format: biochemical, Bambusa balcooa

O=c1c(O)c(-c2ccc(O)c(O)c2)oc2cc(O)cc(O)c12 [quercetin]
IC50: 7 nM
